Data reported in ChEMBL document CHEMBL3045100, “Comparative molecular similarity indices analysis of some 1-substituted imidazole analogs as Candida albicans P450-demethylase inhibitors” (2013).
In brackets after ≈: the same amount, converted by molar mass.

Test system: Candida albicans
Test: Antifungal activity against Candida albicans assessed as growth inhibition
Format: functional
Details: for MIC: Candida albicans

| MIC | SMILES | -logMIC |
| --- | --- | --- |
| 500 µg/mL (≈ 1460 µM) | Cc1ccc(NC(=S)Nn2ccnc2-c2ccc(Cl)cc2)cc1 | 2.69 |
| 200 µg/mL (≈ 569 µM) | Cc1nc([N+](=O)[O-])cn1CC(CNc1ccccc1)Nc1ccccc1 (configuration not stated) | 2.3 |
| 100 µg/mL (≈ 361 µM) | Cc1ncc([N+](=O)[O-])n1CC(O)COc1ccccc1 (configuration not stated) | 2.06 |
| 500 µg/mL (≈ 1620 µM) | Cc1nc([N+](=O)[O-])cn1CCC(=O)Nc1cccc(Cl)c1 | 2.71 |
| 100 µg/mL (≈ 354 µM) | Cc1ncc([N+](=O)[O-])n1CNc1cccc2ccccc12 | 2 |
| 250 µg/mL (≈ 943 µM) | O=C(Cn1ccnc1)c1ccc(Br)cc1 | 2.3 |
| 400 µg/mL (≈ 1380 µM) | Cc1ncc([N+](=O)[O-])n1C(C)C(=O)Nc1cccc(O)c1 (configuration not stated) | 2.6 |
| 800 µg/mL (≈ 3460 µM) | O=C(CCn1ccnc1)Nc1cccc(O)c1 | 2.9 |
| 200 µg/mL (≈ 845 µM) | Cc1nccn1CC(O)c1ccc(Cl)cc1 (configuration not stated) | 2.31 |
| 500 µg/mL (≈ 1540 µM) | Cc1nc([N+](=O)[O-])cn1CCC(=O)Nc1cccc2ccccc12 | 2.74 |
| 250 µg/mL (≈ 660 µM) | S=C(Nc1cccc2ccccc12)Nn1ccnc1-c1ccc(Cl)cc1 | 2.42 |
| 200 µg/mL (≈ 719 µM) | Cc1nccn1CC(O)c1ccc(-c2ccccc2)cc1 (configuration not stated) | 2.33 |
| 500 µg/mL (≈ 1530 µM) | Cc1ncc([N+](=O)[O-])n1CC(O)COc1ccc2ccccc2c1 (configuration not stated) | 2.69 |
| 100 µg/mL (≈ 406 µM) | Cc1ccc(NCn2c([N+](=O)[O-])cnc2C)cc1 | 1.98 |
| 100 µg/mL (≈ 279 µM) | COc1ccccc1NC(=S)Nn1ccnc1-c1ccc(Cl)cc1 | 1.97 |
| 200 µg/mL (≈ 749 µM) | OC(Cn1ccnc1)c1ccc(Br)cc1 (configuration not stated) | 2.3 |
| 400 µg/mL (≈ 1310 µM) | COc1ccccc1NCC(=O)Cn1cc([N+](=O)[O-])nc1C | 2.6 |
| 400 µg/mL (≈ 1080 µM) | Cc1ncc([N+](=O)[O-])n1CCOC(c1ccccc1)c1ccccc1S (configuration not stated) | 2.6 |
| 25 µg/mL (≈ 98.3 µM) | Cc1ncc([N+](=O)[O-])n1CCN(C(C)C)C(C)C | 1.38 |
| 1000 µg/mL (≈ 3130 µM) | Cc1nc([N+](=O)[O-])cn1CCC(=O)Nc1ccccc1[N+](=O)[O-] | 2.95 |
| 3.91 µg/mL (≈ 10.1 µM) | Cc1ccc(NC(=S)Nn2c(-c3ccc([N+](=O)[O-])cc3)cnc2S)cc1 | 0.6 |
| 800 µg/mL (≈ 3460 µM) | Cc1nccn1CC(=O)Nc1cccc(O)c1 | 2.9 |

| MIC | SMILES | -logMIC |
| --- | --- | --- |
| 12.5 µg/mL (≈ 42.9 µM) | Cc1ncc([N+](=O)[O-])n1CCNc1ccc([N+](=O)[O-])cc1 | 1.1 |
| 100 µg/mL (≈ 279 µM) | COc1ccc(NC(=S)Nn2ccnc2-c2ccc(Cl)cc2)cc1 | 2.02 |
| 100 µg/mL (≈ 292 µM) | Cc1ccccc1NC(=S)Nn1ccnc1-c1ccc(Cl)cc1 | 2.03 |
| 400 µg/mL (≈ 1390 µM) | Cc1ccc(NCC(=O)Cn2cc([N+](=O)[O-])nc2C)cc1 | 2.6 |
| 300 µg/mL (≈ 1070 µM) | Cc1nccn1CC(=O)c1ccc(Br)cc1 | 2.48 |
| 1000 µg/mL (≈ 3240 µM) | Cc1nc([N+](=O)[O-])cn1CCC(=O)Nc1ccccc1Cl | 2.93 |
| 500 µg/mL (≈ 1630 µM) | Cc1nc([N+](=O)[O-])cn1CCC(=O)Nc1ccccc1S | 2.68 |
| 800 µg/mL (≈ 3680 µM) | O=C(Cn1ccnc1)Nc1cccc(O)c1 | 2.9 |
| 100 µg/mL (≈ 305 µM) | Cc1ncc([N+](=O)[O-])n1CC(O)COc1cccc2ccccc12 (configuration not stated) | 2.06 |
| 100 µg/mL (≈ 248 µM) | COc1ccc(NC(=S)Nn2ccnc2-c2ccc(Br)cc2)cc1 | 2 |
| 250 µg/mL (≈ 645 µM) | Cc1ccc(NC(=S)Nn2ccnc2-c2ccc(Br)cc2)cc1 | 2.41 |
| 400 µg/mL (≈ 1180 µM) | Cc1ncc([N+](=O)[O-])n1CCOC(c1ccccc1)c1cnccn1 (configuration not stated) | 2.6 |
| 100 µg/mL (≈ 453 µM) | O=C(Cn1ccnc1)c1ccc(Cl)cc1 | 2 |
| 800 µg/mL (≈ 2760 µM) | Cc1ncc([N+](=O)[O-])n1CCC(=O)Nc1cccc(O)c1 | 2.9 |
| 200 µg/mL (≈ 816 µM) | Cc1nccn1CC(=O)c1ccc([N+](=O)[O-])cc1 | 2.9 |
| 300 µg/mL (≈ 1090 µM) | Cc1nccn1CC(=O)c1ccc(-c2ccccc2)cc1 | 2.48 |
| 100 µg/mL (≈ 236 µM) | S=C(Nc1cccc2ccccc12)Nn1ccnc1-c1ccc(Br)cc1 | 2.01 |
| 800 µg/mL (≈ 2900 µM) | Cc1ncc([N+](=O)[O-])n1CC(=O)Nc1cccc(O)c1 | 2.9 |
| 800 µg/mL (≈ 2590 µM) | Cc1ncc([N+](=O)[O-])n1CC(=O)CNc1ccc(Cl)cc1 | 2.6 |
| 800 µg/mL (≈ 3260 µM) | Cc1nccn1CCC(=O)Nc1cccc(O)c1 | 2.9 |
| 100 µg/mL (≈ 343 µM) | Cc1ncc([N+](=O)[O-])n1CCNc1ccccc1[N+](=O)[O-] | 2 |
| > 500 µg/mL | O=[N+]([O-])c1ccc(-c2cnc(S)n2NC(=S)Nc2cccc3ccccc23)cc1 | 2.7 |

| MIC | SMILES | -logMIC |
| --- | --- | --- |
| 400 µg/mL (≈ 1160 µM) | Cc1ncc([N+](=O)[O-])n1CCOC(c1ccccc1)c1cccs1 (configuration not stated) | 2.6 |
| 25 µg/mL (≈ 118 µM) | Cc1ncc([N+](=O)[O-])n1CCNC(C)C | 1.39 |
| 300 µg/mL (≈ 1210 µM) | Cc1nccn1CC(O)c1ccc([N+](=O)[O-])cc1 (configuration not stated) | 2.39 |
| 50 µg/mL (≈ 203 µM) | Cc1ncc([N+](=O)[O-])n1CCNc1ccccc1 | 1.7 |
| 1.95 µg/mL (≈ 4.86 µM) | COc1ccc(NC(=S)Nn2c(-c3ccc([N+](=O)[O-])cc3)cnc2S)cc1 | 0.29 |
| 500 µg/mL (≈ 979 µM) | Cc1nc([N+](=O)[O-])cn1CCC(=O)Nc1c(Br)cc(Br)cc1Br | 2.64 |
| 31.2 µg/mL (≈ 81.1 µM) | Cc1ccccc1NC(=S)Nn1c(-c2ccc([N+](=O)[O-])cc2)cnc1S | 1.5 |
| 200 µg/mL (≈ 852 µM) | Cc1nccn1CC(=O)c1ccc(Cl)cc1 | 2.26 |
| 400 µg/mL (≈ 1120 µM) | Cc1ncc([N+](=O)[O-])n1CCOC(Cc1cccs1)c1ccccc1 (configuration not stated) | 2.6 |
| 400 µg/mL (≈ 1300 µM) | Cc1nc([N+](=O)[O-])cn1CC(=O)CNc1cccc(Cl)c1 | 2.6 |
| 100 µg/mL (≈ 343 µM) | Cc1ccccc1OCC(O)Cn1c([N+](=O)[O-])cnc1C (configuration not stated) | 2 |
| 100 µg/mL (≈ 431 µM) | Cc1ncc([N+](=O)[O-])n1CNc1ccccc1 | 1.94 |
| 100 µg/mL (≈ 416 µM) | Cc1ncc([N+](=O)[O-])n1CN(C(C)C)C(C)C | 2 |
| 250 µg/mL (≈ 1120 µM) | OC(Cn1ccnc1)c1ccc(Cl)cc1 (configuration not stated) | 2.4 |
| 400 µg/mL (≈ 1460 µM) | Cc1nc([N+](=O)[O-])cn1CC(=O)CNc1ccccc1 | 2.6 |
| 100 µg/mL (≈ 390 µM) | CCCCNCC(O)Cn1c([N+](=O)[O-])cnc1C (configuration not stated) | 1.99 |
| 100 µg/mL (≈ 390 µM) | Cc1ncc([N+](=O)[O-])n1CC(O)CNCC(C)C (configuration not stated) | 1.99 |
| 1000 µg/mL (≈ 3650 µM) | Cc1nc([N+](=O)[O-])cn1CCC(=O)Nc1ccccc1 | 3 |
| 100 µg/mL (≈ 258 µM) | Cc1ccccc1NC(=S)Nn1ccnc1-c1ccc(Br)cc1 | 2.01 |
| 200 µg/mL (≈ 711 µM) | Cc1nccn1CC(O)c1ccc(Br)cc1 (configuration not stated) | 2.35 |
| 250 µg/mL (≈ 620 µM) | COc1ccccc1NC(=S)Nn1ccnc1-c1ccc(Br)cc1 | 2.4 |
| 50 µg/mL (≈ 236 µM) | CCCNCCn1c([N+](=O)[O-])cnc1C | 1.68 |
